Measurements as given in publication PMC9604400, “Synthesis, Anticancer and Antitubercular Properties of New Chalcones and Their Nitrogen-Containing Five-Membered Heterocyclic Hybrids Bearing Sulfonamide Moiety” (International Journal of Molecular Sciences, 2022).
Several values for one entry are separate records, joined by “and”; a condition that tells them apart may be missing. Equal entries are not always repeated.

Experiments:
MDA-MB-231/ATCC = experiment: NCI-60 screen (SRB), breast cancer; details: Homo sapiens; for IC50: MDA-MB-231; for CC50: MDA-MB-231, read-out: LC50
COLO 205 = experiment: NCI-60 screen (SRB), colon cancer; details: for IC50 / CC50: Homo sapiens; for IC50: COLO 205; for CC50: COLO 205, read-out: LC50; for lethality: COLO 205, single dose 10 μM
HOP-62 = experiment: NCI-60 screen (SRB), non-small cell lung cancer; details: Homo sapiens; for IC50: HOP-62; for CC50: HOP-62, read-out: LC50
TK-10 = experiment: NCI-60 screen (SRB), renal cancer; details: Homo sapiens; for IC50: TK-10; for CC50: TK-10, read-out: LC50
NCI-H322M = experiment: NCI-60 screen (SRB), non-small cell lung cancer; format: cell-based; details: Homo sapiens; for IC50: five-dose screen; for CC50: read-out: LC50
Experimental: All compounds selected by the US National Cancer Institute (NCI) were initially tested at a single dose (10^−5 M) on the full panel of 60 cancer cell lines represented by leukemia, melanoma, lung, colon, central nervous system (CNS), ovarian, kidney, prostate and breast cancer. Only compounds that were able to satisfy the predetermined inhibition criteria against a minimum number of cell lines proceeded to five-dose assays ([…], 0.1 and 0.01 μM).
In these studies, human cancer cell lines were cultured in a RPMI-1640 medium containing 5% fetal bovine serum and 2 mM of L-glutamine. Following the protocol for a typical assay, cells were inoculated into 96-well plates and incubated at 37 °C, 5% CO2, 95% air, and 100% relative humidity for 24 h prior to the addition of the compounds to be tested. After 24 h, two plates of each cell line were fixed in situ with trichloroacetic acid (TCA) to represent a measure of the cell population for each cell line at the time of sample addition (Tz). Compounds were dissolved in DMSO to 400-fold the maximum desired concentration for analysis and subsequently diluted to twice the maximum desired concentration with medium containing 50 μg/mL gentamicin. An additional series of four dilutions at 10-fold concentration was performed to provide a total of five concentrations of the compound plus the control. Aliquots of 100 μL of these dilutions were taken and added to 96-well plates already containing 100 μL of the medium, resulting in the final required concentrations of the sample. The plates were incubated for 48 h at the same conditions. For adherent cells, the assay was terminated with the addition of cold TCA. Cells were fixed in situ by the slow addition of 50 μL of 50% (w/v) cold ATC (final concentration, 10% TCA) and incubated for 60 min at 4 °C. The supernatant was discarded, and the plates were washed five times with tap water and air dried. A quantity of 100 μL of 0.4% (w/v) sulforhodamine B (SRB) solution in 1% acetic acid was added to each well, and each plate was incubated for 10 min at room temperature. Upon completion of staining, unbound pigment was removed by five washes with 1% acetic acid and the plates were air-dried. The stains were solubilized with 10 mM Trizma base and absorbance was recorded on an automated plate reader at a wavelength of 515 nm. Using the absorbance measurements [time zero (Tz), growth control in the absence of the sample and growth test in the presence of the sample at the five concentration levels (Ti)], the percent growth was calculated for each sample at the concentration levels. The percent growth was calculated as: [(Ti − Tz)/(C − Tz)] × 100 for concentrations for which Ti > Tz, and [(Ti − Tz)/Tz] × 100 for concentrations for which Ti < Tz. Two dose-response parameters were calculated for each compound. The 50% growth inhibition (GI50) was calculated from [(Ti − Tz)/(C − Tz)] × 100 = 50, which is the sample concentration at which the net increase in protein is 50% lower in treated cells (as measured by SRB staining) compared to the net increase in protein seen in control cells and the LC50 (sample concentration at which a 50% reduction in protein measured at the end of treatment compared to the beginning), indicating a net loss of cells; calculated from [(Ti − Tz)/Tz] × 100 = −50. Values were calculated for each of these two parameters if the activity level was reached; however, if the effect was not reached or was exceeded, the value for that parameter was expressed as greater or less than the maximum or minimum of the concentration tested.

HCT-15 = experiment: NCI-60 screen (SRB), colon cancer; details: for IC50 / CC50: Homo sapiens; for IC50: HCT-15; for CC50: HCT-15, read-out: LC50
U251 = experiment: NCI-60 screen (SRB), CNS cancer; details: Homo sapiens; for IC50: U-251; for CC50: U-251, read-out: LC50
SNB-19 = experiment: NCI-60 screen (SRB), CNS cancer; details: Homo sapiens; for IC50: SNB-19; for CC50: SNB-19, read-out: LC50
SK-OV-3 = experiment: NCI-60 screen (SRB), ovarian cancer; details: Homo sapiens; for IC50: SK-OV-3; for CC50: SK-OV-3, read-out: LC50
SK-MEL-28 = experiment: NCI-60 screen (SRB), melanoma; details: Homo sapiens; for IC50: SK-MEL-28; for CC50: SK-MEL-28, read-out: LC50
[1] = system: 60 human cancer cell lines; experiment: NCI-60 screen (SRB), whole panel; format: cell-based; details: for IC50 / inhibition at 10 µM: Homo sapiens; for IC50: five-dose screen, read-out: IC50 values against most cell lines (range); for inhibition at 10 µM: read-out: Mean growth inhibition (GI) percentage
EKVX = experiment: NCI-60 screen (SRB), non-small cell lung cancer; details: Homo sapiens; for CC50: read-out: LC50
KM12 = experiment: NCI-60 screen (SRB), colon cancer; details: Homo sapiens; for IC50: KM12; for CC50: KM12, read-out: LC50
MDA-MB-435 = experiment: NCI-60 screen (SRB), melanoma; details: Homo sapiens; for IC50: MDA-MB-435; for CC50: MDA-MB-435, read-out: LC50
CAKI-1 = experiment: NCI-60 screen (SRB), renal cancer; details: Homo sapiens; for IC50: CAKI-1; for CC50: CAKI-1, read-out: LC50
HS 578T = experiment: NCI-60 screen (SRB), breast cancer; details: for IC50 / CC50: Homo sapiens, Hs-578T; for CC50: read-out: LC50
UACC-257 = experiment: NCI-60 screen (SRB), melanoma; details: Homo sapiens; for IC50: UACC-257; for CC50: UACC-257, read-out: LC50
MCF7 = experiment: NCI-60 screen (SRB), breast cancer; details: Homo sapiens; for IC50: MCF7; for CC50: MCF7, read-out: LC50
[2] = single dose 10 μM, mean over 60 cell lines, over 100% = cell death

Row | Structure (SMILES) | IC50 (MDA-MB-231/ATCC) | CC50 (MDA-MB-231/ATCC) | IC50 (COLO 205) | CC50 (COLO 205) | IC50 (HOP-62) | CC50 (HOP-62) | IC50 (TK-10) | CC50 (TK-10) | IC50 (NCI-H322M) | CC50 (NCI-H322M) | IC50 (HCT-15) | CC50 (HCT-15) | IC50 (U251) | CC50 (U251) | IC50 (SNB-19) | CC50 (SNB-19) | IC50 (SK-OV-3) | CC50 (SK-OV-3) | IC50 (SK-MEL-28) | CC50 (SK-MEL-28) | further results
1 | COc1cc(OC)c(S(N)(=O)=O)cc1C(=O)C=Cc1ccccc1 [Compound 17a, 5-Cinnamoyl-2,4-dimethoxybenzenesulfonamide] | 11.9 µM | 61.6 µM | 10.6 µM | 54.2 µM | 9.51 µM | 51.9 µM | 12.9 µM | 51.5 µM | 10.7 µM | 47.6 µM | 3.55 µM | 57.5 µM | 2.92 µM | 39.2 µM | 14 µM | 58 µM | 14.4 µM | 52.9 µM | 12.5 µM | 51 µM | IC50 [1]: 0.34 to 17.6 µM; inhibition at 10 µM [1, 2]: 71.8%; IC50 (EKVX): 14.2 µM; CC50 (EKVX): 53.6 µM; IC50 (KM12): 3.31 µM; CC50 (KM12): 62.3 µM; IC50 (MDA-MB-435): 2.12 µM; CC50 (MDA-MB-435): 35.9 µM; IC50 (CAKI-1): 1.86 µM; CC50 (CAKI-1): 39.5 µM; IC50 (HS 578T): 5.89 µM; CC50 (HS 578T): > 100 µM; IC50 (UACC-257): 9.96 µM; CC50 (UACC-257): 47.8 µM; IC50 (MCF7): 0.97 µM; CC50 (MCF7): 62.5 µM
2 | COc1cc(OC)c(S(N)(=O)=O)cc1C(=O)/C=C/c1ccc(Cl)cc1 [Compound 17b, (E)-5-(3-(4-Chlorophenyl)acryloyl)-2,4-dimethoxybenzenesulfonamide] | 18.9 µM | > 100 µM | 1.66 µM | 5.88 µM | 2.5 µM | 25.9 µM | 2.91 µM | 33.4 µM | 2.31 µM | 38.7 µM | 1.46 µM | > 100 µM | 2.18 µM | > 100 µM | 3.17 µM | > 100 µM | 2.8 µM | 35.4 µM | 3.03 µM | 33.4 µM | lethality (COLO 205): 30.00%; lethality (HCT-15; HCT-15, single dose 10 μM): 41.55%; IC50 [1]: 0.73 to 18.6 µM; inhibition at 10 µM [1, 2]: 94.1%; IC50 (EKVX): 3.88 µM; CC50 (EKVX): > 100 µM; IC50 (KM12): 1.82 µM; CC50 (KM12): > 100 µM; IC50 (MDA-MB-435): 2.08 µM; CC50 (MDA-MB-435): 29.3 µM; IC50 (CAKI-1): 1.89 µM; CC50 (CAKI-1): 32.9 µM; IC50 (HS 578T): > 100 µM; CC50 (HS 578T): > 100 µM; IC50 (UACC-257): 5.46 µM; CC50 (UACC-257): 71.6 µM; IC50 (MCF7): 4.11 µM; CC50 (MCF7): 40.3 µM
3 | COc1cc(OC)c(S(N)(=O)=O)cc1C(=O)/C=C/c1ccc(C)cc1 [Compound 17c, (E)-2,4-Dimethoxy-5-(3-(p-tolyl)acryloyl)benzenesulfonamide] | 3.41 µM | 60 µM | 3.33 µM | 41.7 µM | 2.9 µM | 29.5 µM | 3.41 µM | 39.6 µM | 2.87 µM | 34.7 µM | 2.56 µM | 74.8 µM | 2.66 µM | 32.7 µM | 3.65 µM | 45.3 µM | 3.18 µM | 32.5 µM | 4.09 µM | 40.8 µM | IC50 [1]: 0.54 to 11.5 µM; inhibition at 10 µM [1, 2]: 81.2%; IC50 (EKVX): 4.33 µM; CC50 (EKVX): 43.3 µM; IC50 (KM12): 3.13 µM; CC50 (KM12): > 100 µM; IC50 (MDA-MB-435): 2.27 µM; CC50 (MDA-MB-435): 25.4 µM; IC50 (CAKI-1): 2.42 µM; CC50 (CAKI-1): 35.2 µM; IC50 (HS 578T): 3.5 µM; CC50 (HS 578T): > 100 µM; IC50 (UACC-257): 3.86 µM; CC50 (UACC-257): 41.9 µM; IC50 (MCF7): 2.48 µM; CC50 (MCF7): 54.1 µM
4 | COc1cc(OC)c(S(=O)(=O)N(CCCl)CCCl)cc1C(=O)/C=C/c1cc(OC)c(OC)c(OC)c1 [Compound 18e, (E)-N,N-bis(2-Chloroethyl)-2,4-dimethoxy-5-(3-(3,4,5-trimethoxyphenyl)acryloyl)benzenesulfonamide] | > 100 µM | > 100 µM | 4.46 µM | 8.39 µM | 3.77 µM | > 100 µM | 75 µM | > 100 µM | 3 µM | > 100 µM | 3.98 µM | > 100 µM | 3.68 µM | 7.61 µM | 5.71 µM | 45.7 µM | 13 µM | > 100 µM | 3.54 µM | 6.88 µM | lethality (COLO 205): 89.76%; mean lethality ([1]; single dose 10 μM, mean over 60 cell lines): 25.48%; Mean growth inhibition (GI) percentage [1, 2]: 100.00% and 125.48%; IC50 (EKVX): 2.69 µM; CC50 (EKVX): > 100 µM; IC50 (KM12): 4.25 µM; CC50 (KM12): 9.4 µM; IC50 (MDA-MB-435): 7.51 µM; CC50 (MDA-MB-435): > 100 µM; IC50 (CAKI-1): > 100 µM; CC50 (CAKI-1): > 100 µM; GI% (HS 578T; HS 578T, single dose 10 μM): 21.70%; IC50 (HS 578T): > 100 µM; CC50 (HS 578T): > 100 µM; IC50 (UACC-257): 3.89 µM; CC50 (UACC-257): 9.14 µM; IC50 (MCF7): 4.36 µM; CC50 (MCF7): 35.5 µM
